{
  "source": "patent US20070207331A1",
  "about": "“Azo compounds and coating compositions containing the azo compounds” (priority 2006, published 2007)",
  "assay": "solubility of the reactive azo compounds in toluene (weight percent solubility)",
  "assay_type": "physicochemical",
  "settings": "for WPS (weight percent solubility in toluene): heated to boil, cooled to room temperature, filtered (0.45 μm), dry residue mass / filtrate mass; for solubility in toluene relative to compounds of similar structure (in words): comparison of methyl ester comparative compounds with the yellow azo compounds of the invention",
  "protocol": "The solubilites of the reactive azo compounds of Examples 1, 2, 3 and 4 and Comparative Examples 1, 2 and 3 (C-1, C-2 and C-3) in toluene were determined according to the following procedures: A sample (0.2 g) of each compound was added to a screw top vial followed by the addition of toluene (0.5 mL for each vial containing the reactive azo compound of Examples 1, 3, 4 or C-3; 1.0 mL for Examples 2 or C-1; 1.5 mL for Example C-2. Each vial was capped and heated until the solution or mixture began to boil. Each solution or mixture then was allowed to cool to room temperature. Various amounts of toluene were required to give a filterable solution or suspension upon cooling. The solutions or suspensions of the azo compounds were filtered (0.45 μm nylon membrane with glass microfiber prefilter, Autovial®, Whatman Inc.) to give homogenous solutions (filtrates). Each filtered solution was weighed and the toluene solvent was removed under reduced pressure to give the mass of dry residue of each azo compound dissolved in the toluene solvent. The weight percent solubility of each azo compound is defined as [formula]\nwherein WPS is the weight percent solubility for each azo compound in toluene and Dry Azo Compound Residue and Toluene Solution Filtrate are produced as described above. The results of the toluene solubility evaluations are shown in Table II wherein Azo compound refers to the example in which the reactive azo compound and its preparation is described.",
  "data": [
    {"smiles": "C=C(C)c1cccc(C(C)(C)NC(=O)OCCn2c(O)c(/N=N/c3ccccc3C(=O)OCC(CC)CCCC)c(C)c(C#N)c2=O)c1", "note": "(stereo not shown) [Example 1]", "values": [
      {"measurement": "WPS (weight percent solubility in toluene)", "result": 37.5, "unit": "weight percent"}
    ]},
    {"smiles": "C=C(C)C(=O)OCCn1c(O)c(/N=N/c2ccccc2C(=O)OCC(C)C)c(C)c(C#N)c1=O", "note": "[Example 2]", "values": [
      {"measurement": "WPS (weight percent solubility in toluene)", "result": 18.6, "unit": "weight percent"}
    ]},
    {"smiles": "C=C(C)C(=O)OCCn1c(O)c(/N=N/c2ccccc2C(=O)OCC(CC)CCCC)c(C)c(C#N)c1=O", "note": "(stereo not shown) [Example 3]", "values": [
      {"measurement": "WPS (weight percent solubility in toluene)", "result": 33.3, "unit": "weight percent"}
    ]},
    {"smiles": "C=C(C)C(=O)OCCn1c(O)c(/N=N/c2ccccc2C(=O)OCCOCC)c(C)c(C#N)c1=O", "note": "[Example 4]", "values": [
      {"measurement": "WPS (weight percent solubility in toluene)", "result": 35.5, "unit": "weight percent"}
    ]},
    {"smiles": "C=C(C)c1cccc(C(C)(C)NC(=O)OCCn2c(O)c(/N=N/c3ccc(C(=O)OC)cc3)c(C)c(C#N)c2=O)c1", "note": "[Example C-1]", "values": [
      {"measurement": "solubility in toluene relative to compounds of similar structure (in words)", "result": "much lower"},
      {"measurement": "WPS (weight percent solubility in toluene)", "result": 8.8, "unit": "weight percent"}
    ]},
    {"smiles": "C=C(C)c1cccc(C(C)(C)NC(=O)OCCn2c(O)c(/N=N/c3ccccc3C(=O)OC)c(C)c(C#N)c2=O)c1", "note": "[Example C-2]", "values": [
      {"measurement": "solubility in toluene relative to compounds of similar structure (in words)", "result": "much lower"},
      {"measurement": "WPS (weight percent solubility in toluene)", "result": 2.3, "unit": "weight percent"}
    ]},
    {"smiles": "C=C(C)C(=O)OCCn1c(O)c(/N=N/c2ccccc2C(=O)OC)c(C)c(C#N)c1=O", "note": "[Example C-3]", "values": [
      {"measurement": "solubility in toluene relative to compounds of similar structure (in words)", "result": "much lower"},
      {"measurement": "WPS (weight percent solubility in toluene)", "result": 11.1, "unit": "weight percent"}
    ]}
  ]
}
